Patent publication US20150105252A1, “SUBSTITUTED PYRAZOLES AS HERBICIDES” (E I DU PONT DE NEMOURS AND COMPANY, priority 2013, published 2015)

Experiments:
Experiment in all cases: Test C postemergence
windgrass = assay type: in vivo, Apera spica-venti; conditions: 250 g ai/ha, scale 0 to 100 (0 no effect, 100 complete control)
Surinam grass = assay type: in vivo, Brachiaria decumbens; conditions: for Surinam Grass plant response rating: 62 g ai/ha, scale 0 to 100
Excerpt: (§1) Seeds of plant species selected from blackgrass (Alopecurus myosuroides), ryegrass, Italian (Italian ryegrass, Lolium multiflorum), wheat (winter wheat, Triticum aestivum), galium (catchweed bedstraw, Galium aparine), corn (Zea mays), crabgrass, large (large crabgrass, Digitaria sanguinalis), foxtail, giant (giant foxtail, Setaria faberii), johnsongrass (Sorghum halepense), lambsquarters (Chenopodium album), morningglory (Ipomoea coccinea), nutsedge, yellow (yellow nutsedge, Cyperus esculentus), pigweed (redroot pigweed, Amaranthus retroflexus), ragweed (common ragweed, Ambrosia elation), soybean (Glycine max), barnyardgrass (Echinochloa crus-galli), oilseed rape (Brassica napus), waterhemp (common waterhemp, Amaranthus rudis), oat, wild (wild oat, Avena fatua), kochia (Kochia scoparia), Surinam grass (Brachiaria decumbens), foxtail, green (green foxtail, Setaria viridis), goosegrass (Eleusine indica), bromegrass, downy (downy bromegrass, Bromus tectorum), nightshade (eastern black nightshade, Solanum ptycanthum), cocklebur (common cocklebur, Xanthium strumarium), cupgrass, woolly (woolly cupgrass, Eriochloa villosa), bermudagrass (Cynodon dactylon), sunflower, (common oilseed sunflower, Helianthus annuus), Russian thistle (Salsola kali), and velvetleaf (Abutilon theophrasti) were planted into a blend of loam soil and sand and treated preemergence with test chemicals formulated in a non-phytotoxic solvent mixture which included a surfactant.
(§2) At the same time, plants selected from these crop and weed species and also chickweed (common chickweed, Stellaria media), canarygrass (littleseed canarygrass, Phalaris minor), and deadnettle (henbit deadnettle, Lamium amplexicaule), were planted in pots containing Redi-Earth® planting medium (Scotts Company, 14111 Scottslawn Road, Marysville, Ohio 43041) comprising spaghnum peat moss, vermiculite, wetting agent and starter nutrients and treated with postemergence applications of test chemicals formulated in the same manner. Plants ranged in height from 2 to 18 cm (1- to 4-leaf stage) for postemergence treatments. Treated plants and controls were maintained in a greenhouse for 13 to 15 days, after which time all species were compared to controls and visually evaluated. Plant response ratings, summarized in Table C, are based on a scale of 0 to 100 where 0 is no effect and 100 is complete control. A dash (-) response means no test result.

foxtail, green = assay type: in vivo, Setaria viridis; conditions: for Plant response rating, Foxtail, Green: postemergence
Excerpt: as §1, §2

[1] = 125 g ai/ha, scale 0 to 100, 0 no effect, 100 complete control
[2] = 250 g ai/ha, scale 0 to 100 (0 no effect, 100 complete control)
[3] = 62 g ai/ha, scale 0 to 100, 0 no effect, 100 complete control

CCc1cc(C(=O)NOC(C)C)nn1Cc1cccc(OC(F)(F)F)c1 [Compound 70] was tested, and the “Plant response rating, Windgrass” value (windgrass) was 50, the “Surinam Grass plant response rating” value (Surinam grass) was 10 and the “Plant response rating, Surinam Grass” value (Surinam grass; [1]) was 20. The “Plant response rating, Surinam Grass” value (Surinam grass; [2]) was 30, the “Plant response rating, Foxtail, Green” value (foxtail, green; [2]) was 80 and the “Plant response rating, Foxtail, Green” value (foxtail, green; [3]) was 5. The “Plant response rating, Foxtail, Green” value (foxtail, green; [1]) was 80.

In the case of CCc1cc(C(=O)NCC(F)(F)F)nn1Cc1cccc(OC(F)(F)F)c1 [Compound 20], the “Plant response rating, Windgrass” value (windgrass) is reported as 45, the “Surinam Grass plant response rating” value (Surinam grass) is reported as 5 and the “Plant response rating, Surinam Grass” value (Surinam grass; [1]) is reported as 10. For the same compound, the “Plant response rating, Surinam Grass” value (Surinam grass; [2]) was 10, the “Foxtail, Green plant response rating” value (foxtail, green; Postemergence, 31 g ai/ha, scale 0 to 100) was 20 and the “Plant response rating, Foxtail, Green” value (foxtail, green; [2]) was 60. For the same compound, the “Plant response rating, Foxtail, Green” value (foxtail, green; [3]) was 30 and the “Plant response rating, Foxtail, Green” value (foxtail, green; [1]) was 55.
